According to PMC2854587 (Nature, 2008):

Biological target: T1, SrfTEII (surfactin type II thioesterase; SrfD, external thioesterase) (Bacillus subtilis, UniProt Q08788)
T1 sequence (Q08788 1-241): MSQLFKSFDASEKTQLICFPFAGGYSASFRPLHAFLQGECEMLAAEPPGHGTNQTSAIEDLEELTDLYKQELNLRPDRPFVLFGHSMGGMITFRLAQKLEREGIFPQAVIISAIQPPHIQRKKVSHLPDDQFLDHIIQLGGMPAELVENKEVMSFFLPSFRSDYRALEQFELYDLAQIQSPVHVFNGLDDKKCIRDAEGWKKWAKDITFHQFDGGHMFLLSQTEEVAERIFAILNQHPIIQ
Test: […]-HSQC NMR titration
Assay type: binding
Details: 296 K; 15N-enriched SrfTEII

SMILES: CCCCCCCCCCCCCC(=O)SCCNC(=O)CCNC(=O)[C@H](O)C(C)(C)COP(=O)(O)OP(=O)(O)OC[C@H]1O[C@@H](n2cnc3c(N)ncnc32)[C@H](O)[C@@H]1OP(=O)(O)O [myristoyl-CoA]
- 15N-HSQC NMR titration (chemical shift perturbation): Interestingly, myristoyl-CoA also binds to SrfTEII
